Experimental findings from the SangsterLogP compilation are described below.

The nature of one data set: method code SF-AS, from DOI: 10.1248/cpb.32.4994, PMID: 6534548.
Consider `O=C(Cc1ccccc1)Nc1ccc(F)cc1`, for which the logP (as a rule, a log measure of how a compound divides between an organic and an aqueous phase) was determined as 2.86.
Take `CC(=O)c1cccc(NC(=O)Cc2ccccc2)c1`: the logP came out at 2.62.
The compound `CC(=O)Oc1cccc(NC(=O)Cc2ccccc2)c1` yielded a logP of 2.37.
Still for that read-out and setting: in the case of `O=C(Cc1ccccc1)Nc1ccc(O)cc1` it was 1.82; in that of `O=C(Cc1ccccc1)Nc1cccc(I)c1`, 3.91; in that of `Cc1cccc(NC(=O)Cc2ccccc2)c1`, 3.14.
On the same count and under the same terms, in the case of `CC(=O)N(c1ccccc1)c1ccc(C)cc1` it was 3.05; in that of `N#Cc1cccc(NC(=O)Cc2ccccc2)c1`, 2.75.
In turn, `COc1ccc(NC(=O)Cc2ccccc2)cc1` gave a logP of 2.49.
The same measure, in the same setting: in the case of `O=C(Cc1ccccc1)Nc1cccc(F)c1` it was 3.1; in that of `O=C(Cc1ccccc1)Nc1ccc(Cl)cc1`, 3.54; in that of `COc1cccc(NC(=O)Cc2ccccc2)c1`, 2.86.
As to `O=C(Cc1ccccc1)Nc1cccc(Cl)c1`, the logP amounted to 3.61.
Still for that read-out and setting: in the case of `Nc1cccc(NC(=O)Cc2ccccc2)c1` it was 1.59.
On the same count and under the same terms, in the case of `CS(=O)(=O)Oc1cccc(NC(=O)Cc2ccccc2)c1` it was 2.32; in that of `CNc1cccc(NC(=O)Cc2ccccc2)c1`, 2.31; in that of `CC(=O)c1ccc(NC(=O)Cc2ccccc2)cc1`, 2.75.
The same measure, in the same setting: in the case of `O=C(Cc1ccccc1)Nc1cccc(O)c1` it was 2.22; in that of `CCNc1cccc(NC(=O)Cc2ccccc2)c1`, 2.59; in that of `O=C(Cc1ccccc1)Nc1cccc([N+](=O)[O-])c1`, 2.93.
In the case of `O=C(Cc1ccccc1)Nc1cccc(Br)c1`, the logP is 3.77.

The nature of the next data set: method code AS, from DOI: 10.1248/cpb.32.4994, PMID: 6534548.
Consider `O=C(Cc1ccccc1)Nc1ccc(Br)cc1`, for which the logP was 3.7.

Another data set is described as follows: method code SF-AQ, from DOI: 10.1248/cpb.32.4994, PMID: 6534548.
The compound `CCc1cccc(N(C(C)=O)c2ccccc2)c1` had a logP of 3.47.
